This note sets out measurements from paper PMC9877316, “Identification of a novel P2X7 antagonist using structure-based virtual screening” (Frontiers in Pharmacology, 2023).

The target of the assay is T1, human P2X7 (Homo sapiens, UniProt Q99572).
T1 construct: expressed in transfected cells; host or cells: 1321N1 astrocytoma cells (compounds 1-17); HEK-293 cells stably expressing human P2X7 (gift of E. Adinolfi)
T1 sequence (Q99572 1-595): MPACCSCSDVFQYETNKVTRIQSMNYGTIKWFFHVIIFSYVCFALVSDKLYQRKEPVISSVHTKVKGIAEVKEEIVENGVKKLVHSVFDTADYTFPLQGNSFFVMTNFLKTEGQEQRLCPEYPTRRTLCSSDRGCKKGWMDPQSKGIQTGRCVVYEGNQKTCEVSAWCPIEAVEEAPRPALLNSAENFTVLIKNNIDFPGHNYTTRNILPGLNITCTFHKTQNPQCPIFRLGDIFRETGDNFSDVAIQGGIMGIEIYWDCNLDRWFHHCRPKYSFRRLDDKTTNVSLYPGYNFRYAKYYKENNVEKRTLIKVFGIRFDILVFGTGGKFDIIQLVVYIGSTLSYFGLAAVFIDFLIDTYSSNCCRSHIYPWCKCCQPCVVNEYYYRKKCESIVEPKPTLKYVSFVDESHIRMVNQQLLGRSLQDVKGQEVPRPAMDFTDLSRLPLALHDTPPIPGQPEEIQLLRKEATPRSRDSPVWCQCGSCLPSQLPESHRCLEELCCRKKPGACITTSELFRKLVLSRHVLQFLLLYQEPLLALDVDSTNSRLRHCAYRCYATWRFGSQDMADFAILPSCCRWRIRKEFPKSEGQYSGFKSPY
The experiment in a line: ATP-induced YoPro-1 dye uptake assay, human P2X7. The assay is classed as cell-based. Particulars: 300 µM ATP, YoPro-1 uptake. Here is the method:
1321N1 astrocytoma cells and HEK-293 cells were cultured (at 37°C, 5% CO2) in Dulbecco’s modified Eagle’s medium (DMEM/F-12 with Glutamax) supplemented with 10% foetal bovine serum (FBS) and 200 unit/ml of penicillin and streptomycin antibiotics (Fisher Scientific). For stable cell line generation, cells were transfected using FuGene HD Transfection Reagent (Promega) according to the manufacturer’s protocol with plasmids encoding either human P2X4 with a C-terminal (His)10 tag ([Young et al., 2008]), human P2X7 with a C-terminal EYMPME tag (kindly provided by R.A. North) or rat P2X7 C-terminally tagged with a GFP-(His)8 tag, generated by PCR amplification of the coding sequence for rat P2X7 from a pcDNA-based expression vector ([Young et al., 2007]), adding XhoI and EcoRI sites at the 5′- and 3′- ends respectively, followed by restriction digestion and ligation into a zebrafish P2X4-GFP expression vector based on pEGFP-C1 (kindly provided by Eric Gouaux; [Kawate and Gouaux, 2006]) to replace the zebrafish P2X4 coding region with rP2X7. Transfected clones were grown in DMEM/F-12 with Glutamax medium supplemented with G-418 (Geneticin®, Fisher Scientific), 600 μg/ml and 150 μg/ml during selection and maintenance respectively. […] HEK-293 cells stably expressing human P2X7 ([Adinolfi et al., 2010]) were a kind gift from Elena Adinolfi.
Cells were plated as for the calcium influx assay (Section 2.4). Culture medium was replaced with low divalent cation containing extracellular solution (ECS-LD; 147 mM NaCl, 10 mM HEPES, 13 mM Glucose, .2 mM CaCl2, 2 mM KCl. pH = 7.4 in MilliQ water) and 5 μM Yopro-1. […] The baseline was measured with a BMG Clariostar instrument for 5–10 cycles, followed by addition of ATP (or BzATP) and recording for at least 30 further cycles (approx. 1 min per data point). The collected responses were normalized to the first data-point recorded after ATP addition. The initial gradient of the dye uptake curve was used to calculate the response to ATP.
The antagonist activity of the 17 compounds (applied at 10 µM) was assayed initially on 1321N1 astrocytoma cells stably expressing human P2X4 receptors by measuring the ATP-induced (applied at 1.2 µM) increase in Fluo-4 fluorescence due to calcium influx via P2X4, using 2 µM BX430 as a positive control (Figure 1A). […] The ATP-induced rate of uptake of YoPro-1 dye was measured upon application of at 300 µM ATP, using .1 µM A740003 as a positive control (Figure 1B).
A small library of 16 commercially available compounds was selected according to the presence of the same scaffold as GP-25, (70% similarity, Tanimoto index) and/or presence of at least one functional group we hypothesized could contribute to GP-25 activity (e.g. carboxylic acid, halogen substituent to the aromatic ring, ester, etc.) (Compounds 18–33; Table 1). […] Although the number of compounds tested was limited by their availability via a commercial source, the numerous ‘hits’ allowed for a basic structure-relationship (SAR) analysis.

What is called inhibition is the drop in the measured response relative to a control, in per cent. By IC50 is commonly meant the concentration that inhibits the measured activity by half. A higher IC50 goes with lower potency.

Turning to `COC(=O)C1=C(C)NC2=C(C(=O)c3ccccc32)C1c1cc(Br)ccc1OCC(=O)O` (centres unmarked) [Compound 9, (4-bromo-2-(3-(methoxycarbonyl)-2-methyl-5-oxo-4,5-dihydro-1H-indeno(1,2-b)pyridine-4-yl)phenoxy)acetic acid], the half-inhibitory concentration (IC50) was determined as 8.7 µM. In addition, the inhibition at 30 µM (P2X7, approx. % inhibition at 30 μM compound, 1321N1 (1-17) or HEK (18-33) cells, read-out: % Inhibition at hP2X7) was around 75%.
